Measurements from the supplement of paper PMC5844555.

What was measured:
Assay in all cases: 3' UTR reporter interaction score (median-centred robust z-score of log2 firefly/Renilla activity); higher = less repression of the 3' UTR reporter
Conditions in all cases: HEK293T; 48 h
[1] = system: BRCA2
Outline: (§1)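 Firefly and Renilla luciferase activities were read 48 h post-transfection in HEK293T cells (10,000/well, 96-well plates). The cells had received 100 ng firefly luc2P reporter bearing the gene's 3' UTR, 20 ng Renilla pRL-TK control and 2.5 pmol miRNA mimic via DharmaFECT Duo. The interaction score, where more negative means interaction, is a per-plate robust z-score (median, median absolute deviation) of the log firefly/Renilla ratio, median-centred per miRNA and averaged over at least two independent screens.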

[2] = system: EZH2
Outline: as §1

[3] = system: FBXW7
Outline: as §1

[4] = system: HRAS
Outline: as §1

[5] = system: MYB
Outline: as §1

[6] = system: MYCN
Outline: as §1

[7] = system: MYC
Outline: as §1

[8] = system: MYT1L
Outline: as §1

[9] = system: NOTCH1
Outline: as §1

[10] = system: PHF6
Outline: as §1

[11] = system: PHOX2B
Outline: as §1

[12] = system: RB1
Outline: as §1

[13] = system: TP53
Outline: as §1

[14] = system: ZEB2
Outline: as §1

Row | Sequence | 3' UTR reporter interaction score [1] | 3' UTR reporter interaction score [2] | 3' UTR reporter interaction score [3] | 3' UTR reporter interaction score [4] | 3' UTR reporter interaction score [5] | 3' UTR reporter interaction score [6] | 3' UTR reporter interaction score [7] | 3' UTR reporter interaction score [8] | 3' UTR reporter interaction score [9] | 3' UTR reporter interaction score [10] | 3' UTR reporter interaction score [11] | 3' UTR reporter interaction score [12] | 3' UTR reporter interaction score [13] | 3' UTR reporter interaction score [14]
1 | AGUGUGGCUUUCUUAGAGC | -3.13 | -0.421 | 1.11 | 0.377 | 0.805 | 0.47 | -0.501 | -0.23 | -0.152 | -0.715 | 1.11 | -0.335 | -0.0434 | 0.748
2 | AGUUAAUGAAUCCUGGAAAGU | -0.407 | -0.175 | 0.0665 | -0.441 | 0.47 | 0.0474 | 0.0217 | -0.25 | -0.406 | -0.54 | -0.662 | -0.487 | -0.194 | 0.251
3 | AUAAGACGAGCAAAAAGCUUGU | 2.27 | 1.23 | 0.133 | 0.557 | -1.19 | -0.0307 | -0.771 | 0.212 | -0.743 | -0.375 | -0.501 | -1.39 | 0.501 | -2.58
4 | AUAAUACAUGGUUAACCUCUUU | -0.764 | 0 | -0.808 | -0.143 | 1.01 | 1.04 | 0.024 | 0.598 | 0.871 | -0.737 | -0.62 | -0.631 | -0.592 | -2.7
5 | AUCAACAGACAUUAAUUGGGCGC | 1.26 | 1.19 | 1.67 | 1.56 | 0.0314 | -0.34 | -1.29 | -0.0651 | -1.2 | -1.06 | -0.111 | 1.49 | -1.55 | 1.91
6 | AUCACACAAAGGCAACUUUUGU | -0.664 | -1.06 | -0.0452 | -0.777 | 0.989 | 0.776 | 0.0727 | 0.734 | 0.929 | -0.33 | 0.549 | 0.566 | -0.723 | -0.747
7 | AUCACAUUGCCAGGGAUUUCC | -1.67 | 0.281 | 0.0652 | -0.452 | -0.3 | 0.592 | -0.00223 | 0.197 | -0.492 | 0.394 | -0.216 | 0.826 | -1.29 | 2.06
8 | AUCAGCAAACAUUUAUUGUGUG | 0.0901 | -1.04 | -0.701 | -1.06 | 1.62 | -0.181 | -0.19 | -0.934 | 0.157 | 1.01 | 1.35 | 1.07 | 0.16 | 1.25
9 | AUCAUAGAGGAAAAUCCACGU | 0.121 | 0.733 | 0.0331 | -1.11 | -0.185 | 0.335 | -0.578 | 0.0345 | 0.241 | 0.424 | 0.628 | -0.168 | 0.405 | -0.144
10 | AUCAUAGAGGAAAAUCCAUGUU | -0.0049 | 0.791 | -0.575 | -0.664 | 0.366 | 0.0452 | -0.229 | -0.0506 | 1.28 | -0.0407 | 0.462 | 0.00936 | 0.636 | -1.1
11 | AUCAUGAUGGGCUCCUCGGUGU | -0.103 | -0.332 | -2.53 | 0.527 | 0.47 | -1.14 | -1.04 | 1.53 | -2.44 | 0.0291 | -0.574 | 0.226 | 0.202 | 0.672
12 | AUCCCUUGCAGGGGCUGUUGGGU | -0.445 | 0.197 | -1.6 | -0.0656 | 0.681 | 0.104 | 0.108 | 0.613 | 0.359 | -0.0289 | -1.62 | -0.201 | -0.855 | 1.78
13 | AUCCUUGCUAUCUGGGUGCUA | -0.448 | -0.755 | 0.895 | -3.26 | 0.799 | 1.2 | 0.118 | 0.363 | 0.113 | -1.61 | -0.723 | -2.46 | 0.763 | -0.105
14 | AUCGCUGCGGUUGCGAGCGCUGU | -2.3 | -1.15 | 0.301 | -1.73 | 1.13 | 0.0647 | 0.0173 | 1.61 | -0.324 | 2.14 | 2.38 | -0.265 | -0.536 | 0.885
15 | AUCGGGAAUGUCGUGUCCGCC | 0.225 | -0.604 | 0.361 | 0.0629 | -0.74 | -0.166 | -1.57 | -0.0689 | -0.49 | 1.55 | 0.773 | -0.355 | 0.313 | 0.211
16 | AUCGUGCAUCCCUUUAGAGUGUU | 0.348 | 0.461 | 0.0524 | -0.945 | 0.132 | 0.792 | -0.211 | 0.0982 | -0.525 | 1.97 | -0.0114 | 0.943 | -0.928 | -2.08
17 | AUCGUGCAUCCUUUUAGAGUGU | -0.461 | 0.0977 | -0.0607 | -1.03 | 0.368 | 1.14 | -0.764 | -0.261 | -0.741 | 2.24 | 0.0627 | 0.712 | -0.802 | -2.58
18 | AUGACCUAUGAAUUGACAGAC | -0.0675 | 0.321 | -0.658 | 0.425 | 1.61 | 1.35 | 1.39 | 0.231 | -0.0227 | -2.93 | -1.53 | -3 | 0.0613 | -6.08
19 | AUGAUCCAGGAACCUGCCUCU | 0.796 | 1.23 | 1.33 | -0.133 | -0.332 | 0.642 | 0.0276 | -2.69 | 0.405 | -2.82 | -1.8 | -0.262 | -0.239 | -0.647
